Source: patent US6492325B1, “Use of α1β1 integrin receptor inhibitors and TGF-β1 inhibitors in the treatment of kidney disease” (Boys Town National Research Hospital, priority 1998, dated 2002)

Tests used:
129 Sv/J Alport mouse [1] = assay: TGF-β1 inhibitors in 129 Sv/J Alport mouse, transmission electron microscopy of GBM ultrastructure; format: in vivo; conditions: 7 week old Alport mice, treated twice weekly from 3 weeks of age
Protocol: (§1) A. Transmission Electron Microscopy: Fresh external renal cortex was minced in 4% paraformaldehyde, allowed to fix for 2 hours, and stored at 5° C. in PBS (pH 7.4). The tissue was washed extensively (5 times for 10 minutes each at 4° C.) with 0.1M Sorenson's buffer (Sorenson's buffer was made by combining 100 ml of 200 mM monobasic sodium phosphate and 400 ml of 200 mM dibasic sodium phosphate with 500 ml of water, and adjusted to pH 7.4), and postfixed in 1% osmium tetroxide in Sorenson's buffer for 1 hour. The tissue was then dehydrated in graded ethanol (70%, then 80%, then 90%, then 100% for ten minutes each), and finally in propylene oxide and embedded in Poly/Bed 812 epoxy resin (Polysciences, Inc., Warrington, Pa.) following the procedures described by the manufacturer. In short, 42 ml of polybed 812 was mixed with 26 ml of dodecylsuccinic anhydride (DDSA, Polysciences, Inc.) and 24 ml of nadic methyl anhydride (Polysciences Inc.). One and a half mls of 2,4,6 tri(dimethly aminomethyl) phenol was added as a catalyst, and the activated resin frozen in 10 ml aliquots until needed for embedding specimen. Glomeruli were identified in 1 μm (micron) sections stained with toluidine blue, and thin sections were cut at 70 nm (nanometer) thickness using a Reichert Jung Ultracut E ultramicrotome (Cambridge Instrument Co, Vienna, Austria). […]

129 Sv/J Alport mouse [2] = assay: TGF-β1 inhibitors in 129 Sv/J Alport mouse, scanning electron microscopy of glomeruli; format: in vivo; conditions: 7 week old Alport mice, treated twice weekly from 3 weeks of age
Text: B. Scanning Electron Microscopy: Small pieces (approximately 2 mm cubes) of kidney cortex were fixed in 3% phosphate buffered glutaraldehyde, then postfixed in 1% phosphate buffered osmium tetroxide. Samples were then dehydrated in graded ethanols, and critical point dried in carbon dioxide. The cubes were then cracked in pieces by stressing them with the edge of a razor blade, and mounted with glue onto stubs with the cracked surface facing upward. The surface was sputter coated with gold/palladium using well known procedures and visualized with a scanning electron microscope.
(§2) The experimental protocol was to inject with either FK506 (2 μg/g body weight, injected intraperitoneally, Fujisawa Pharmaceutical Co., Ltd., Osaka, Japan), or a soluble TGF-B1 receptor (25 μg/injection, intravenously through the tail vein, Biogen Inc., Cambridge, Mass.) twice weekly starting at 3 weeks of age. Kidneys were harvested at 7 weeks of age and subjected to the described analyses.
Some of the kidney specimen was processed for scanning electron microscopy. Glomeruli were exposed by freeze fracture of renal cortex, which removes the Bowman's capsule, exposing the outer layer of podocytes as they cover the capillary loops of the glomerulus. […]

[3] = system: double knockout (DKO) mice; assay: TGF-β1 inhibitors in double knockout mice, transmission electron microscopy of GBM ultrastructure; format: in vivo, mouse; conditions: treated twice weekly from 4 weeks, kidneys taken at 10 weeks
Protocol: as §1, with “Inc.).” for “Inc.). One and a half mls of 2,4,6 tri(dimethly aminomethyl) phenol was added as a catalyst, and the activated resin frozen in 10 ml aliquots until needed for embedding specimen. Glomeruli were identified in 1 μm (micron) sections stained with toluidine blue, and thin sections were cut at 70 nm (nanometer) thickness using a Reichert Jung Ultracut E ultramicrotome (Cambridge Instrument Co, Vienna, Austria).”
(§3) Mice (DKO mice are null for both the collagen α3(IV) and integrin α1 genes) were injected with TGF-β1 inhibitors FK506 (2 μg/gram body weight, twice weekly, intraperitoneal injections) or Biogen's TGF-β1 soluble receptor (25 μg per injection, twice weekly, intravenous injections) starting at four weeks of age. The kidneys were taken at 10 weeks of age and analyzed. […]

[4] = system: double knockout (DKO) mice; assay: TGF-β1 inhibitors in double knockout mice, urinary albumin (proteinuria) by gel electrophoresis; format: in vivo, mouse
Protocol: Urine samples were collected at weekly intervals and 0.5 μl fractionated by electrophoresis through 10% denaturing acrylamide gels. The protein in the gels was stained with coomassie blue and photographed. Bovine serum albumin was used as a molecular weight standard.
Mice (DKO mice are null for both the collagen α3(IV) and integrin α1 genes) were injected with TGF-β1 inhibitors FK506 (2 μg/gram body weight, twice weekly, intraperitoneal injections) or Biogen's TGF-β1 soluble receptor (25 μg per injection, twice weekly, intravenous injections) starting at four weeks of age. The kidneys were taken at 10 weeks of age and analyzed. The 10 week time point was chosen since, in the double knockouts, the disease typically progresses to the point where significant irregular thickening of the GBM is observed, and the animals are beginning to progress towards end stage renal failure. Thus, if the TGF-β1 inhibitors are to provide additional protective benefits, those benefits should be evident at this stage in GBM disease progression. […] A typical example of these differences is illustrated in FIG. 14. […]
Proteinuria was examined in these same mice collected weekly during the course of treatment. Samples (equivalent to approximately one half of one microliter) were analyzed by electrophoresis on polyacrylamide gels. […]

129 Sv/J Alport mouse [5] = assay: Dual immunofluorescence staining for laminin α2 chain in glomeruli of treated Alport mice; format: in vivo; conditions: 7 week old 129 Sv/J Alport mouse
Protocol: as §2
In dual fluorescence analysis, fresh renal cortex was embedded in Tissue Tek aqueous embedding compound, snap frozen, and cut at 4 microns on a cryostat. Slides were postfixed in cold (−20° C.) 100% acetone for 10 minutes, and then air dried overnight. Tissue was rehydrated by three washes in PBS for 10 minutes each. The primary antibodies were diluted together in 7% non-fat dry milk (BioRad). An anti-entactin antibody (Chemicon Inc.) was used as a known marker for glomerular basement membrane at a dilution of 1:200. The laminin α2 chain-specific antibody was a gift from Dr. Peter Yurchenco (Robert Wood Johnson Medical School, Piscataway, N.J.). The specificity of this antibody for the laminin α2 chain was illustrated in Cheng et al., J. Biol. Chem., 272:31525-31532, 1997. The antibody was used at a concentration of 1:10. Primary antibodies were allowed to react overnight at 4° C. in a humidified dish. […]

double knockout mice [6] = assay: Northern blot of kidney RNAs (matrix molecules, Timp) in double knockout mice treated with TGF-β1 inhibitors; format: in vivo, mouse; conditions: 10 week old double knockout mice; untreated show nine-fold reduction relative to control
Protocol: A. Northern Blot Analysis: Kidneys were removed and snap frozen in liquid nitrogen and ground to a powder in liquid nitrogen using a mortar and pestle. The powder was solubilized in TRIZOL reagent (GibCo/BRL, Grand Island, N.Y.) using 5 ml of reagent per kidney. Total cellular RNA was extracted according to the manufacturer's instructions. Twenty micrograms (20 μg) of RNA was fractionated on a 1.0% agarose/formaldehyde/MOPS (3-(N-morpholino)propanesulfonic acid) gel by electrophoresis at 80V for 4 hours. Gels were soaked in water for 45 minutes, and transferred to Hybond N (uncharged nylon, New England Nuclear, Inc., Boston, Mass.) by capillary blot overnight using 750 mM ammonium acetate (in water) as a transfer buffer. The RNA was UV crosslinked to the blot using a Stratalinker (Stratagene, Inc., LaJolla, Calif.). […] The quality of the RNA preparations and the consistency of loading was assessed by staining gels with ethidium bromide and scanning the 18S and 28S ribosomal RNA bands using a Gel Imager 2000 digital imaging system instrument and software package (Applied Imaging, Santa Clara, Calif.). […] Quantitative densitometric scanning confirmed no more than a 10% variance in sample loading. […] Quantitative differences in expression were assessed by phosphorimage analysis using a BioRad GS-525 phosphorimager (Bio Rad, Inc., Hercules, Calif.), and subtracted for background hybridization. […]

double knockout mice [7] = assay: Immunoperoxidase staining for collagen type I and fibronectin in tubulointerstitium of double knockout mice; format: in vivo, mouse; conditions: 10 week old double knockout mice
Text: E. Immunoperoxidase Detection: The immunoperoxidase detection method was used in immunostaining for TGF-β1 in glomeruli as well as fibronectin and collagen type I in tubunointerstitium. The collagen type I antibody is rabbit anti-mouse, and was purchased from Biogenesis, Inc. (Sandown, N.H.). The antisera was used at a 1:100 dilution for immunoperoxidase staining. The fibronectin antibody used was the same as for immunfluorescence staining (a rabbit anti-human fibronectin antisera from Sigma Chemical Company, St. Louis, Mo.), and was used at a 1:100 dilution. […]
as §3
The role of TGF-β1 in upregulation of matrix proteins and in renal fibrosis has been well established (Yang et al., J. Am. Soc. Nephrol., 5:1610-1617, 1995; Border and Ruoslahti, J. Clin. Invest., 90:1-7, 1992). […] Animals injected with TGF-β1 inhibitors were analyzed using three markers for interstitial fibrosis and compared directly with 10 week old double knockout animals that were not treated with inhibitors. […]

For `C=CC[C@@H]1/C=C(\C)C[C@H](C)C[C@H](OC)[C@H]2O[C@@](O)(C(=O)C(=O)N3CCCC[C@H]3C(=O)O[C@H](/C(C)=C/[C@@H]3CC[C@@H](O)[C@H](OC)C3)[C@H](C)[C@@H](O)CC1=O)[C@H](C)C[C@@H]2OC` [FK506, tacrolimus], the “GBM thickening (transmission electron microscopy)” value (129 Sv/J Alport mouse [1]) was “obvious lack of basement membrane thickening”, the “Podocyte foot process architecture (transmission electron microscopy)” value (129 Sv/J Alport mouse [1]) was “significant degree of swelling in the foot processes” and the “Surface of the glomerulus / podocyte foot processes (scanning electron microscopy)” value (129 Sv/J Alport mouse [2]) was “looks much the same as that in the untreated Alport mouse”. The “Focal GBM thickening and foot process effacement (transmission electron microscopy)” value [3] was “marked reduction of both focal GBM thickening and foot process effacement”, the “Performance of the glomerular filter (urinary albumin)” value ([4]; double knockout mice, relative to untreated double knockout mice, urine collected weekly) was “markedly improved” and the “Urinary protein bands related to nephrotoxic effects” value ([4]; normal and DKO mice treated with FK506) was “diffuse group of bands evident at every timepoint”. The “Accumulation of laminin α2 in the GBM” value (129 Sv/J Alport mouse [5]) was “does not prevent the accumulation of laminin α2”, the “Timp-3 mRNA expression in kidney” value (double knockout mice [6]) was “reduction in Timp-3 expression is not observed” and the “Collagen type I accumulation in interstitium of renal cortex” value (double knockout mice [7]) was “relative absence of collagen type I accumulation”.
